The values below are quoted from earlier work in patent US20220202698A1, “EXTENDED RELEASE PHARMACEUTICAL COMPOSITIONS OF RIOCIGUAT” (Jubilant Pharma Holdings Inc., priority 2020, published 2022).

The conditions of data set [1]: BCS classification.
For data set [2] the following is noted: human, in vivo.

The structures appear in SMILES notation.

For `COC(=O)N(C)c1c(N)nc(-c2nn(Cc3ccccc3F)c3ncccc23)nc1N` [Riociguat, methyl 4,6-diamino-2-[1-(2-fluorobenzyl)-1H-pyrazolo[3,4-b]pyridin-3-yl]-5-pyrimidinyl(methyl)carbamate], the Solubility result in data set [1] is on record as “low solubility”. The Elimination half-life entry in data set [2] is “about 12 hours”.
